Experiments:
[1] = system: primary CLL cells; assay: Ex vivo viability (Annexin V) and proliferation (CFDA) of primary CLL cells with AE, HS-5 stroma and CpG+IL-2, drug dose response; format: cell-based; details: 96 hours, 1.6% AE, 10% Human Serum, HS-5 100:1, CpG ODN + IL-2, 8 concentrations
[2] = system: primary MM cells; assay: Ex vivo viability (Annexin V) and proliferation (CFDA) of primary MM cells in whole BM with AE (autologous plasma), lenalidomide dose response; format: cell-based, human; details: 96 hours, 20% autologous plasma (AE)
Text: Patient whole BM was obtained and prepared as indicated above for each sample type. The Vybrant® CFDA SE Cell Tracer Kit (Molecular Probes) was used to measure cell proliferation as it has been disclosed in Example 3. After the CFDA protocol, all samples were resuspented in Culture Medium+Zell Shield (Labclinics)+L-Glu (Lonza)+20% FBS. Condition A samples stayed as is, condition B samples had different concentrations of autologous MM plasma plus RBCs added and condition C samples received 20% autologous plasma. The final cell concentration ranged from 20 cells/μl to 70 cells/μl. Alternatively, the autologous plasma can be replaced with a pool of three MM plasmas.
The CFDA labeled plasmatic cells were dispensed into 96-well plates (60 μl/well) and incubated at 37° C. with 5% CO2 during 72 or 96 hours. For analysis, MM cells (assessed by monoclonal antibodies) were tested for both viability (Annexin-V staining) and proliferation (CFDA).
After 96 hours of culture, the CFDA staining in conjunction with the immunophenotyping allowed for the analysis of both viability (Annexin-V negative) and proliferation (CFDA peaks) of the plasmatic cells, following the previously described methods using Vivia's ExviTech platform.
As the number of MM cells detected after 96 hours of incubation was too low in just a single well, a pooled well assay was performed, obtaining sample from 4 wells that have been treated in an identical manner. […] According to this, and based on the initial cell count, calculation of the sample volume was done for plating between 1000 and 4000 live pathological MM cells per well. During acquisition, sample from four wells was obtained for each treatment, thus obtaining a minimum of 4000 and a maximum of 16000 live plasmatic cells. The results of these experiments indicate that the use of patient's whole bone marrow plus 20% of autologous plasma, or a pool of at least 3 MM plasmas (Condition C from above) and the use of IMDM culture medium provided the best conditions to achieve better MM cells viability and higher proliferation rates (data not shown). Additionally, the presence of either of the two human stromal cell lines, HS27a and HS5, appeared to have a negative effect on both viability and proliferation.
Some drugs used to treat tumor cells preferentially target cells that are actively proliferating, acting as anti-proliferative agents. An example of this is the use of lenalidomide to treat patients diagnosed with MM. The efficacy of lenalidomide is difficult to assess in ex vivo assays against MM primary tumor cells, as these cells have very low levels of proliferation under the conditions that have traditionally been used. In this example, we tested BM samples from 10 patients diagnosed with MM in our ex vivo assay. AE (plasma only) was added to the culture medium to increase levels of proliferation and lenalidomide was tested across a concentration range of 0.03 to 30 μM.
Whole BM from 10 MM patients was cultured in IMDM medium supplemented with 1% antibiotic, 1% L-Glutamine plus an additional 20% of autologous plasma (AE), for 96 hours. Samples were processed and analyzed as outlined in Example 12. MM cell viability (Annexin V) and proliferation (CFDA) were tested against 4 concentrations of Lenalidomide.

| Compound | effect on Non-Proliferative (NP) Live Tumor Cells (survival index) ([1]; NP fraction) | inhibition of the proliferation, Proliferative (PR) cell fraction (survival index) ([1]; PR fraction) | effect on NP MM cells (survival index) ([2]; sample 1, 0.03 to 30 μM) | effect on PR MM cells (survival index) ([2]; sample 1, 0.03 to 30 μM) | PR cells eliminated ([2]; sample 3) | NP cells eliminated ([2]; sample 3, at a higher concentration) | potency against the PR population ([2]; sample 3, low concentration) | effect in the NP population ([2]; sample 6) | effect on the PR population ([2]; sample 6) | effect against the PR cells ([2]; sample 7) | effect on the NP cells ([2]; sample 7, at a higher concentration) |
| --- | --- | --- | --- | --- | --- | --- | --- | --- | --- | --- | --- |
| CC[C@H](Nc1ncnc2[nH]cnc12)c1nc2cccc(F)c2c(=O)n1-c1ccccc1 [Idelalisib] | little effect | potent inhibition of the proliferation is observed in the low nM range | – | – | – | – | – | – | – | – | – |
| Nc1cccc2c1CN(C1CCC(=O)NC1=O)C2=O (centres unmarked) [lenalidomide] | – | – | no effect | no effect | about 60% | about 20% | very potent | small effect | no effect | very potent and effective | effects the NP cells |

Reference: patent publication US20190212325A1, “AN EX VIVO METHOD FOR TESTING CELLULAR RESPONSEIVENESS OF PRIMARY CELL POPULATIONS TO A DRUG OR COMBINATION OF DRUGS” (VIVIA BIOTECH, S.L, priority 2015, published 2019)
